Laboratory results taken from US5106863A, “Substituted imidazole and pyridine derivatives” (Ortho Pharmaceutical Corporation, priority 1990, dated 1992).
Structures can show the parent of a compound that is named as a salt. Where two headings read alike, the source gives them in different places.

Tests used:
[1] = target: T1, H^+ /K^+ ATPase (Oryctolagus cuniculus, UniProt P27112); assay: Isolated H^+ /K^+ ATPase Assay: inhibition of K+ stimulated response in vesicular membranes from rabbit gastric mucosa; assay type: biochemical; conditions: 10 min preincubation, 15 min at 37° C.
T1 construct: microsomes prepared from a crude homogenate of rabbit gastric mucosa using differential centrifugation; from tissue; host or cells: rabbit gastric mucosa (microsomes, vesicular membranes)
T1 sequence (P27112 2-1035 limits assumed): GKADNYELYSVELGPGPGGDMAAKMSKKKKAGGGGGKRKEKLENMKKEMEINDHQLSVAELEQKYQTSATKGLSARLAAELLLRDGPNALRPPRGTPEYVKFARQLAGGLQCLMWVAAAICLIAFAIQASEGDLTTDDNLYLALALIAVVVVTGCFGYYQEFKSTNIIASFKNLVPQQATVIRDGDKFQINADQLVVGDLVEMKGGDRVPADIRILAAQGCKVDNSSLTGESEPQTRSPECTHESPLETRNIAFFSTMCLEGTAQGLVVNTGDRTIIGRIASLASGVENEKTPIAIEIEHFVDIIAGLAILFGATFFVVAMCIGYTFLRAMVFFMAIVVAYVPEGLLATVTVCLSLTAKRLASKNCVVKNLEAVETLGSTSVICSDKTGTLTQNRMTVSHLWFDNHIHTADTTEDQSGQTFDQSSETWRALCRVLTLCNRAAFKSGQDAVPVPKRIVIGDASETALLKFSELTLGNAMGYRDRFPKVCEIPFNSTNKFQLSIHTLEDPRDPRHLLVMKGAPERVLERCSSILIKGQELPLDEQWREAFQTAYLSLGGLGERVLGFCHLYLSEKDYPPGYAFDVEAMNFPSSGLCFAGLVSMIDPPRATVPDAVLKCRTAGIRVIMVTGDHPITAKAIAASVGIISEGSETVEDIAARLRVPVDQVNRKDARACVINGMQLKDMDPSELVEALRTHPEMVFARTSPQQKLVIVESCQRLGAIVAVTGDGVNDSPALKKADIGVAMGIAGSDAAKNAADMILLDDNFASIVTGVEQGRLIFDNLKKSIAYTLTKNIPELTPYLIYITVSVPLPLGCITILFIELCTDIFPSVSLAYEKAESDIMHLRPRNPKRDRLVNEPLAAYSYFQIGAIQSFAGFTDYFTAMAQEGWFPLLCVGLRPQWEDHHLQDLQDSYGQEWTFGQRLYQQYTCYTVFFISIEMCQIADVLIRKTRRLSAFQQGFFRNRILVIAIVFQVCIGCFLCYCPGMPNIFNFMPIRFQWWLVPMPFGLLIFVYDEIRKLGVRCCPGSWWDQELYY
T1 sequence (P18597 whole entry partner): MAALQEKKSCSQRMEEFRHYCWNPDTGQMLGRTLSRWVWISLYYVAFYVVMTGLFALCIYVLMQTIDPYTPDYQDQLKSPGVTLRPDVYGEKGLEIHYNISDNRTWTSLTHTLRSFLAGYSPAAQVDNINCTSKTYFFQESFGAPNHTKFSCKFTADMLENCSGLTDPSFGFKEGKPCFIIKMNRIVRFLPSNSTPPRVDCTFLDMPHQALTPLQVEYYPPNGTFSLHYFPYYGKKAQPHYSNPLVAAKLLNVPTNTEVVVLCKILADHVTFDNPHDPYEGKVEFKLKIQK
Protocol: Isolated H^+ /K^+ ATPase Assay
Using the procedures described in Eibl, H. et al., Analytical Biochemistry 30, 51 (1969), Ganser, A. L. et al., Biochem. Biophys. Acta 307, 169 (1973), and Beil, W. et al., Br. J. Pharmac. 82, 651 (1984), the example compounds were tested for their ability to inhibit the H^+ /K^+ ATPase enzyme in the vesicular membranes from rabbit gastric mucosa. The H^+ /K^+ ATPase enzyme activity is present in microsomes prepared from a crude homogenate of rabbit gastric mucosa using differential centrifugation.
Assays were conducted in duplicate tubes in a 1 mL reaction volume consisting of 50 mM Tris buffer, 2mM MgCl2, ±10 mM KCl, 10 μl of example compound in dimethylsulfoxide and 20-30 μg of protein. The tubes were preincubated for 10 minutes in a 37° C. shaking water bath before the substrate, (Na2 ATP) was added. The mixture was then incubated for 15 minutes at 37° C. The reaction was stopped with 1 mL of 14% TCA and the tubes were centrifuged at 2000 rpm for 10 minutes.
The amount of inorganic phosphate (Pi) present in each sample was compared to a potassium phosphate standard curve.

[2] = system: stimulated parietal cells; assay: Isolated Parietal Cell Assay: inhibition of 14C-aminopyrine accumulation in stimulated parietal cells; assay type: cell-based, rabbit; conditions: 37° C.
Protocol: Isolated Parietal Cell Assay Using the procedures described in Batzri, S. et al., Biochemica et Biophysica Acta 508, 328 (1978), and Soll, H., Am. J. Physiol. 238, […] (1980), the example compounds were tested for their ability to inhibit ^14 C-aminopyrine accumulation in stimulated parietal cells. Parietal cells were isolated from the fundic mucosa of rabbit stomachs by a four-stage collagenese digestion process. The supernatant fraction from the last two stages of this process contain the individual parietal cells. This cell suspension was centrifuged and reconstituted in a modified Hank's buffer to contain 1-2×10^6 cells/ml. […] […] […] The flasks were incubated in a shaking water bath at 37° C. and gassed with 95% O2, 5% CO2 for 20 minutes. Three aliquots were then taken from each flask, and cell pellets were collected by centrifugation. The pellets were then solubilized with Protosol (NEN) and the radioactivity determined by liquid scintillation spectrometry.

[3] = Oryctolagus cuniculus, 20 min, DcAMP, read-out: Antisecretory Activity in Parietal Cell Assay, DcAMP (IC50)
[4] = Oryctolagus cuniculus, 20 min, HI, histamine-stimulated, read-out: Antisecretory Activity in Parietal Cell Assay, HI (IC50)

| Compound | IC50 [1] [µM] | IC50 ([2]; DcAMP, 20 minutes, read-out: Antisecretory Activity in Parietal Cell Assay, DcAMP (IC50)) [µM] | IC50 ([2]; HI, histamine-stimulated, 20 minutes, read-out: Antisecretory Activity in Parietal Cell Assay, HI (IC50)) [µM] | IC50 [2, 3] [µM] | IC50 [2, 4] [µM] |
| --- | --- | --- | --- | --- | --- |
| 5 (and 6)-Chloro-2-methyl-1-(3,7-dimethyl-2,6(E)-octadienyl)-1H-1,3-benzimidazoleMonohydrochloride.1/4H2 O [Example 20] | 10 | 1.6 | 0.43 | – | – |
| CC(C)=CCCC(C)CC[S+]([O-])c1nc2ccccc2[nH]1 (single isomer, unassigned; (+)) [Example 8, (+)-2-[(3,7-Dimethyl-6-octen-1-yl)sulfinyl]-1H-1,3-benzimidazole Monooxalate] | 72 | – | – | 33.3 | 40 |
| CC(C)=CCC/C(C)=C/CSc1nc2ccccc2[nH]1 [Example 1, 2-[(3,7-Dimethyl-2,6(E)-octadienyl)-thio]-1H-1,3-benzimidazole] | – | – | – | 2.15 | 1.3 |
| CC(C)=CCC/C(C)=C/CSc1nc2cc(Cl)ccc2[nH]1 [Example 2, 5-Chloro-2-[(3,7-dimethyl-2,6(E)-octadienyl)-thio]-1H-1,3-benzimidazole] | 5 | – | – | 3.5 | 2.3 |
| CC(C)=CCC/C(C)=C/CSc1nc2cc(F)c(Cl)cc2[nH]1 [Example 3, 6-Chloro-5-fluoro-2-[(3,7-dimethyl-2,6(E)-octadienyl)thio]-1H-1,3-benzimidazole.1/4Hydrate] | 5.6 | – | – | 2.3 | 3.1 |
| COc1ccc2[nH]c(SC/C=C(\C)CCC=C(C)C)nc2c1 [Example 4, 2-[(3,7-Dimethyl-2,6(E)-octadienyl)thio]-5-methoxy-1H-1,3-benzimidazole Monooxalate] | – | – | – | 2.1 | 0.7 |
| COc1c(C)cnc(Cn2c(SC/C=C(\C)CCC=C(C)C)nc3ccccc32)c1C [Example 5, 1-(3,5-Dimethyl-4-methoxy-2-pyridylmethyl)-2-[(3,7-dimethyl-2,6(E)-octadienyl)thio]-1H-1,3-benzimidazole Monooxalate Hemihydrate] | 3.2 | – | – | 19 | 4 |
| CC(C)=CCC/C(C)=C/CSc1nc2cc(C(F)(F)F)ccc2[nH]1 [Example 6, 5-Trifluoromethyl-2-[(3,7-dimethyl-2,6(E)-octadienyl)thio]-1H-1,3-benzimidazole] | – | – | – | 0.51 | 0.46 |
| CC(C)=CCC[C@H](C)CCSc1nc2ccccc2[nH]1 [Example 7, 3S(+)-2-[(3,7-Dimethyl-6-octen-1-yl)thio]-1H-1,3-benzimidazole] | – | – | – | 2.2 | 2.2 |
| COc1c(C)cnc(Cn2c(SCC[C@@H](C)CCC=C(C)C)nc3ccccc32)c1C [Example 9, 1-(3,5-Dimethyl-4-methoxy-2-pyridylmethyl)-2-[(3,7-dimethyl-6-octen-1-yl)thio]-1H-1,3-benzimidazole Monooxalate] | 3 | – | – | 1.25 | 2 |
| CC(C)=CCC/C(C)=C\CSc1nc2ccccc2n1C/C=C(/C)CCC=C(C)C [Example 10, 1-(3,7-Dimethyl-2,6(Z)-octadienyl)-2-[(3,7-dimethyl-2,6(Z)-octadienyl)-thio]-1H-1,3-benzimidazole Monooxalate] | – | – | – | 1.1 | 1.7 |
| CC(C)=CCC/C(C)=C\CSc1nc2ccccc2[nH]1 [Example 11, 2-[(3,7-Dimethyl-2,6(Z)-octadienyl)-thio]-1H-1,3-benzimidazole.1/4Hydrate] | – | – | – | 3.1 | 2.8 |
| CCCCCCCCSc1nc2ccccc2[nH]1 [Example 12, 2-Octylthio-1H-1,3-benzimidazole] | – | – | – | 1 | 1.9 |
| CCCCCCCCSc1nc2cc(OC)ccc2[nH]1 [Example 13, 5-Methoxy-2-octylthio-1H-1,3-benzimidazole Hemioxalate Monohydrate] | – | – | – | – | 1.3 |
| CCCCCCCCSc1nc2cc(Cl)ccc2[nH]1 [Example 14, 5-Chloro-2-octylthio-1H-1,3-benzimidazole] | – | – | – | – | 2.4 |
| CC(C)=CCC/C(C)=C/CSCc1ccccn1 [Example 15, 2-[3,7-Dimethyl-2,6(E)octadienylthiomethyl]pyridine.1/10 Hydrate] | 9.6 | – | – | 2.9 | 2.4 |
| CC(C)=CCC[C@H](C)CCSc1nccn1C [Example 17, 3S-2-[(3,7-Dimethyl-6-octen-1-yl)thio]-1-methylimidazole] | – | – | – | 1.1 | 1.7 |
| COc1ccc2ncn(C/C=C(\C)CCC=C(C)C)c2c1 [Example 18, 1-(3,7-Dimethyl-2,6(E)-octadienyl)-6-methoxy-1H-1,3-benzimidazole Monooxalate] | 28 | – | – | 0.86 | 0.8 |
| CC(C)=CCC/C(C)=C/Cn1c(CO)nc2ccccc21 [Example 19, 1-[3,7-Dimethyl-2,6(E)-octadienyl]-2-hydroxymethyl-1H-1,3-benzimidazole Hydrochloride.1/4H2 O] | 15 | – | – | 3.3 | 2 |
| CSc1ccc(-c2nc3ccccc3n2C/C=C(\C)CCC=C(C)C)cc1 [Example 21, 1-(3,7-Dimethyl-2,6(E)-octadienyl)-2-(4-methylthiophenyl)-1H-1,3-benzimidazole Monooxalate.H2 O] | 0.86 | – | – | 3 | 40 |
